Experimental data published in patent US20050113459A1, “Compositions for diabetes” (priority 2002, published 2005).

Tests used:
rats = details: daily dose of 1,200 mg/Kg for 52 weeks; cited from earlier work
GK rats = assay: Blood glycosylated hemoglobin (hemoglobin A1c) level of GK rats fed for 12 weeks; type: in vivo, rat; details: GK rats fed for 12 weeks with 0.1 wt% in feedstuff
Description: (§1) The improvement effects of the reduced coenzyme Q10 and the oxidized coenzyme Q10 on the glucose tolerance were examined using model GK rats (5 weeks old, male) having Type II diabetes. The rats were fed ad libitum with a powdered feedstuff containing 0.1 percent by weight of the reduced coenzyme Q10 (containing 2 percent by weight of the oxidized coenzyme Q10) or a feedstuff containing 0.1 percent by weight of the oxidized coenzyme Q10. In order to avoid the reduced coenzyme Q10 in the feedstuff mixture from decreasing due to oxidation, the feedstuff was completely replaced with a new one every two days. The control group was fed with a powdered feedstuff free of coenzyme Q10. The glucose tolerance test was conducted four weeks and six weeks after the feeding of the feedstuff mixture was started (n=4 in each group). In the glucose tolerance test, a 50% glucose solution was orally administered at a dose of 4 ml/kg, and the blood glucose level was measured before the administration and 30 minutes, 60 minutes, 90 minutes, and 120 minutes after the administration. The blood glucose level in blood collected from the tail vein was determined with a simple blood glucose meter.
The blood glycosylated hemoglobin (hemoglobin Alc) level of GK rats fed for 12 weeks was measured as in EXAMPLE 1. […]

[1] = system: model GK rats having Type II diabetes; assay: Glucose tolerance test in model GK rats having Type II diabetes fed coenzyme Q10 feedstuff; type: in vivo, rat
Description: as §1

[2] = 0.1 wt% in feedstuff, after six weeks of administration
[3] = after four weeks and six weeks of administration

Compound	toxic effects in chronic toxicity test (rats)	Hemoglobin A1c level (GK rats) [%]	increase in blood glucose level 30 minutes after the glucose load, in comparison with the control group ([1]; 0.1 wt% in feedstuff, after four weeks of administration, oral glucose load)	glucose tolerance in comparison with that after four weeks [1, 2]	blood glucose level from about an hour after the glucose load, in comparison with the control group [1, 3]	blood glucose level in comparison with the oxidized coenzyme Q10 group ([1]; 0.1 wt% in feedstuff, after four weeks of administration, all measurement times beginning with 30 minutes after the glucose load)	blood glucose level ([1]; 0.1 wt% in feedstuff, after six weeks of administration, all measurement points of glucose tolerance test) [mg/dL]	increase in blood glucose level after glucose load ([1]; 0.1 wt% in feedstuff, after six weeks of administration, all measurement times)	blood glucose level 30 minutes after the peak, versus control group [1, 3]
COC1=C(OC)C(=O)C(C/C=C(\C)CC/C=C(\C)CC/C=C(\C)CC/C=C(\C)CC/C=C(\C)CC/C=C(\C)CC/C=C(\C)CC/C=C(\C)CC/C=C(\C)CCC=C(C)C)=C(C)C1=O [coenzyme Q10]	no toxic effects								
COC1=C(OC)C(=O)C(C/C=C(\C)CC/C=C(\C)CC/C=C(\C)CC/C=C(\C)CC/C=C(\C)CC/C=C(\C)CC/C=C(\C)CC/C=C(\C)CC/C=C(\C)CCC=C(C)C)=C(C)C1=O [oxidized coenzyme Q10, reference compound]		4.93 ± 0.42	significantly inhibited	further improvements	no large difference				
COc1c(O)c(C)c(C/C=C(\C)CC/C=C(\C)CC/C=C(\C)CC/C=C(\C)CC/C=C(\C)CC/C=C(\C)CC/C=C(\C)CC/C=C(\C)CC/C=C(\C)CCC=C(C)C)c(O)c1OC [reduced coenzyme Q10]		4.17 ± 0.15		improved to a greater extent		sharply decreased	≤ 200	strongly inhibited	significantly lower
